# Laboratory results as given in the NIST ThermoML archive (doi:10.1021/je400055v).
# ± gives the expanded uncertainty stated by the source.
# Test: xn = mol fraction of the nth substance listed
# Conditions: Liquid, Vibrating tube method
smiles,measurement,setting,value
CCCCCCCCCCC [undecane] + CCCCCCC,mass density,"313.15 K, 23000 kPa, x2 = 0.05",740.6 ± 0.4 kg/m3
same,mass density,"313.15 K, 23000 kPa, x2 = 0.7482",706.2 ± 0.4 kg/m3
same,mass density,"313.15 K, 24000 kPa, x2 = 0.05",741.3 ± 0.4 kg/m3
same,mass density,"313.15 K, 24000 kPa, x2 = 0.7482",707 ± 0.4 kg/m3
same,mass density,"313.15 K, 25000 kPa, x2 = 0.05",741.9 ± 0.4 kg/m3
same,mass density,"313.15 K, 25000 kPa, x2 = 0.7482",707.7 ± 0.4 kg/m3
same,mass density,"313.16 K, 1000 kPa, x2 = 0.2346",716.5 ± 0.3 kg/m3
same,mass density,"313.16 K, 2001 kPa, x2 = 0.2346",717.4 ± 0.3 kg/m3
same,mass density,"313.16 K, 3000 kPa, x2 = 0.2346",718.3 ± 0.3 kg/m3
same,mass density,"313.16 K, 4001 kPa, x2 = 0.2346",719.2 ± 0.3 kg/m3
same,mass density,"313.16 K, 5000 kPa, x2 = 0.2346",720 ± 0.3 kg/m3
same,mass density,"313.16 K, 6000 kPa, x2 = 0.2346",720.8 ± 0.3 kg/m3
same,mass density,"313.16 K, 7000 kPa, x2 = 0.2346",721.7 ± 0.3 kg/m3
same,mass density,"313.16 K, 8000 kPa, x2 = 0.2346",722.5 ± 0.3 kg/m3
same,mass density,"313.16 K, 9000 kPa, x2 = 0.2346",723.3 ± 0.3 kg/m3
same,mass density,"313.16 K, 10000 kPa, x2 = 0.2346",724.1 ± 0.3 kg/m3
same,mass density,"313.16 K, 11001 kPa, x2 = 0.2346",724.8 ± 0.3 kg/m3
same,mass density,"313.16 K, 12000 kPa, x2 = 0.2346",725.6 ± 0.3 kg/m3
same,mass density,"313.16 K, 13000 kPa, x2 = 0.2346",726.4 ± 0.3 kg/m3
same,mass density,"313.16 K, 14000 kPa, x2 = 0.2346",727.1 ± 0.3 kg/m3
same,mass density,"313.16 K, 15000 kPa, x2 = 0.2346",727.8 ± 0.3 kg/m3
same,mass density,"313.16 K, 16000 kPa, x2 = 0.2346",728.6 ± 0.4 kg/m3
same,mass density,"313.16 K, 17000 kPa, x2 = 0.2346",729.3 ± 0.4 kg/m3
same,mass density,"313.16 K, 18000 kPa, x2 = 0.2346",730 ± 0.4 kg/m3
same,mass density,"313.16 K, 19000 kPa, x2 = 0.2346",730.7 ± 0.4 kg/m3
same,mass density,"313.16 K, 20000 kPa, x2 = 0.2346",731.4 ± 0.4 kg/m3
same,mass density,"313.16 K, 21000 kPa, x2 = 0.2346",732.1 ± 0.4 kg/m3
same,mass density,"313.16 K, 22000 kPa, x2 = 0.2346",732.7 ± 0.4 kg/m3
same,mass density,"313.16 K, 23000 kPa, x2 = 0.2346",733.4 ± 0.4 kg/m3
same,mass density,"313.16 K, 24000 kPa, x2 = 0.2346",734 ± 0.4 kg/m3
same,mass density,"313.16 K, 25000 kPa, x2 = 0.2346",734.7 ± 0.4 kg/m3
same,mass density,"323.09 K, 1001 kPa, x2 = 0.9511",663.1 ± 0.3 kg/m3
same,mass density,"323.09 K, 2000 kPa, x2 = 0.9511",664.3 ± 0.3 kg/m3
same,mass density,"323.09 K, 3000 kPa, x2 = 0.9511",665.4 ± 0.3 kg/m3
same,mass density,"323.09 K, 4000 kPa, x2 = 0.9511",666.6 ± 0.3 kg/m3
same,mass density,"323.09 K, 5000 kPa, x2 = 0.9511",667.7 ± 0.3 kg/m3
same,mass density,"323.09 K, 6000 kPa, x2 = 0.9511",668.8 ± 0.3 kg/m3
same,mass density,"323.09 K, 7000 kPa, x2 = 0.9511",669.9 ± 0.3 kg/m3
same,mass density,"323.09 K, 8000 kPa, x2 = 0.9511",670.9 ± 0.3 kg/m3
same,mass density,"323.09 K, 9000 kPa, x2 = 0.9511",672 ± 0.3 kg/m3
same,mass density,"323.09 K, 10000 kPa, x2 = 0.9511",673 ± 0.3 kg/m3
same,mass density,"323.09 K, 11000 kPa, x2 = 0.9511",674 ± 0.4 kg/m3
same,mass density,"323.09 K, 12000 kPa, x2 = 0.9511",675 ± 0.4 kg/m3
same,mass density,"323.09 K, 13000 kPa, x2 = 0.9511",675.9 ± 0.4 kg/m3
same,mass density,"323.09 K, 14001 kPa, x2 = 0.9511",676.9 ± 0.4 kg/m3
same,mass density,"323.09 K, 15001 kPa, x2 = 0.9511",677.8 ± 0.4 kg/m3
same,mass density,"323.09 K, 16000 kPa, x2 = 0.9511",678.7 ± 0.4 kg/m3
same,mass density,"323.09 K, 17001 kPa, x2 = 0.9511",679.6 ± 0.4 kg/m3
same,mass density,"323.09 K, 18001 kPa, x2 = 0.9511",680.5 ± 0.4 kg/m3
same,mass density,"323.09 K, 19000 kPa, x2 = 0.9511",681.4 ± 0.4 kg/m3
same,mass density,"323.09 K, 20000 kPa, x2 = 0.9511",682.3 ± 0.4 kg/m3
same,mass density,"323.09 K, 21001 kPa, x2 = 0.9511",683.1 ± 0.4 kg/m3
same,mass density,"323.09 K, 22000 kPa, x2 = 0.9511",683.9 ± 0.4 kg/m3
same,mass density,"323.09 K, 23001 kPa, x2 = 0.9511",684.8 ± 0.5 kg/m3
same,mass density,"323.09 K, 24000 kPa, x2 = 0.9511",685.6 ± 0.5 kg/m3
same,mass density,"323.09 K, 25000 kPa, x2 = 0.9511",686.3 ± 0.5 kg/m3
same,mass density,"323.11 K, 2001 kPa, x2 = 0.5063",695.8 ± 0.3 kg/m3
same,mass density,"323.11 K, 3000 kPa, x2 = 0.5063",696.8 ± 0.3 kg/m3
same,mass density,"323.11 K, 4000 kPa, x2 = 0.5063",697.8 ± 0.3 kg/m3
same,mass density,"323.11 K, 5000 kPa, x2 = 0.5063",698.8 ± 0.3 kg/m3
same,mass density,"323.11 K, 6000 kPa, x2 = 0.5063",699.7 ± 0.3 kg/m3
same,mass density,"323.11 K, 7000 kPa, x2 = 0.5063",700.7 ± 0.3 kg/m3
same,mass density,"323.11 K, 8001 kPa, x2 = 0.5063",701.6 ± 0.3 kg/m3
same,mass density,"323.11 K, 9000 kPa, x2 = 0.5063",702.5 ± 0.3 kg/m3
same,mass density,"323.11 K, 10000 kPa, x2 = 0.5063",703.4 ± 0.3 kg/m3
same,mass density,"323.11 K, 11000 kPa, x2 = 0.5063",704.3 ± 0.3 kg/m3
same,mass density,"323.11 K, 12000 kPa, x2 = 0.5063",705.1 ± 0.3 kg/m3
same,mass density,"323.11 K, 13000 kPa, x2 = 0.5063",706 ± 0.3 kg/m3
same,mass density,"323.11 K, 14000 kPa, x2 = 0.5063",706.8 ± 0.4 kg/m3
same,mass density,"323.11 K, 15000 kPa, x2 = 0.5063",707.6 ± 0.4 kg/m3
same,mass density,"323.11 K, 16000 kPa, x2 = 0.5063",708.5 ± 0.4 kg/m3
same,mass density,"323.11 K, 17001 kPa, x2 = 0.5063",709.3 ± 0.4 kg/m3
same,mass density,"323.11 K, 18000 kPa, x2 = 0.5063",710.1 ± 0.4 kg/m3
same,mass density,"323.11 K, 19000 kPa, x2 = 0.5063",710.8 ± 0.4 kg/m3
same,mass density,"323.11 K, 20000 kPa, x2 = 0.5063",711.6 ± 0.4 kg/m3
same,mass density,"323.11 K, 21001 kPa, x2 = 0.5063",712.4 ± 0.4 kg/m3
same,mass density,"323.11 K, 22050 kPa, x2 = 0.5063",713.1 ± 0.4 kg/m3
same,mass density,"323.11 K, 23000 kPa, x2 = 0.5063",713.9 ± 0.4 kg/m3
same,mass density,"323.11 K, 24000 kPa, x2 = 0.5063",714.6 ± 0.4 kg/m3
same,mass density,"323.11 K, 25000 kPa, x2 = 0.5063",715.3 ± 0.4 kg/m3
same,mass density,"323.12 K, 1000 kPa, x2 = 0.7482",679.1 ± 0.3 kg/m3
same,mass density,"323.12 K, 1001 kPa, x2 = 0.05",716.7 ± 0.3 kg/m3
same,mass density,"323.12 K, 2000 kPa, x2 = 0.7482",680.2 ± 0.3 kg/m3
same,mass density,"323.12 K, 2001 kPa, x2 = 0.05",717.6 ± 0.3 kg/m3
same,mass density,"323.12 K, 3000 kPa, x2 = 0.05",718.5 ± 0.3 kg/m3
same,mass density,"323.12 K, 3000 kPa, x2 = 0.7482",681.3 ± 0.3 kg/m3
same,mass density,"323.12 K, 4000 kPa, x2 = 0.05",719.4 ± 0.3 kg/m3
same,mass density,"323.12 K, 4000 kPa, x2 = 0.7482",682.3 ± 0.3 kg/m3
same,mass density,"323.12 K, 5000 kPa, x2 = 0.05",720.3 ± 0.3 kg/m3
same,mass density,"323.12 K, 5000 kPa, x2 = 0.7482",683.4 ± 0.3 kg/m3
same,mass density,"323.12 K, 6000 kPa, x2 = 0.05",721.1 ± 0.3 kg/m3
same,mass density,"323.12 K, 6000 kPa, x2 = 0.7482",684.4 ± 0.3 kg/m3
same,mass density,"323.12 K, 7000 kPa, x2 = 0.05",722 ± 0.3 kg/m3
